{"source": "patent US20130302825A1", "about": "“USES OF MACROPHAGE MANNOSE RECEPTOR TO SCREEN COMPOUNDS AND USES OF THESE COMPOUNDS” (Merck, priority 2010, published 2013)", "target": "T1, mannose receptor (Rattus norvegicus, UniProt A0A8I5XVS2)", "T1 construct": "NR8383 rat alveolar macrophages were obtained from ATCC; host or cells: NR8383 rat alveolar macrophages", "T1 sequence (A0A8I5XVS2 1-1431)": "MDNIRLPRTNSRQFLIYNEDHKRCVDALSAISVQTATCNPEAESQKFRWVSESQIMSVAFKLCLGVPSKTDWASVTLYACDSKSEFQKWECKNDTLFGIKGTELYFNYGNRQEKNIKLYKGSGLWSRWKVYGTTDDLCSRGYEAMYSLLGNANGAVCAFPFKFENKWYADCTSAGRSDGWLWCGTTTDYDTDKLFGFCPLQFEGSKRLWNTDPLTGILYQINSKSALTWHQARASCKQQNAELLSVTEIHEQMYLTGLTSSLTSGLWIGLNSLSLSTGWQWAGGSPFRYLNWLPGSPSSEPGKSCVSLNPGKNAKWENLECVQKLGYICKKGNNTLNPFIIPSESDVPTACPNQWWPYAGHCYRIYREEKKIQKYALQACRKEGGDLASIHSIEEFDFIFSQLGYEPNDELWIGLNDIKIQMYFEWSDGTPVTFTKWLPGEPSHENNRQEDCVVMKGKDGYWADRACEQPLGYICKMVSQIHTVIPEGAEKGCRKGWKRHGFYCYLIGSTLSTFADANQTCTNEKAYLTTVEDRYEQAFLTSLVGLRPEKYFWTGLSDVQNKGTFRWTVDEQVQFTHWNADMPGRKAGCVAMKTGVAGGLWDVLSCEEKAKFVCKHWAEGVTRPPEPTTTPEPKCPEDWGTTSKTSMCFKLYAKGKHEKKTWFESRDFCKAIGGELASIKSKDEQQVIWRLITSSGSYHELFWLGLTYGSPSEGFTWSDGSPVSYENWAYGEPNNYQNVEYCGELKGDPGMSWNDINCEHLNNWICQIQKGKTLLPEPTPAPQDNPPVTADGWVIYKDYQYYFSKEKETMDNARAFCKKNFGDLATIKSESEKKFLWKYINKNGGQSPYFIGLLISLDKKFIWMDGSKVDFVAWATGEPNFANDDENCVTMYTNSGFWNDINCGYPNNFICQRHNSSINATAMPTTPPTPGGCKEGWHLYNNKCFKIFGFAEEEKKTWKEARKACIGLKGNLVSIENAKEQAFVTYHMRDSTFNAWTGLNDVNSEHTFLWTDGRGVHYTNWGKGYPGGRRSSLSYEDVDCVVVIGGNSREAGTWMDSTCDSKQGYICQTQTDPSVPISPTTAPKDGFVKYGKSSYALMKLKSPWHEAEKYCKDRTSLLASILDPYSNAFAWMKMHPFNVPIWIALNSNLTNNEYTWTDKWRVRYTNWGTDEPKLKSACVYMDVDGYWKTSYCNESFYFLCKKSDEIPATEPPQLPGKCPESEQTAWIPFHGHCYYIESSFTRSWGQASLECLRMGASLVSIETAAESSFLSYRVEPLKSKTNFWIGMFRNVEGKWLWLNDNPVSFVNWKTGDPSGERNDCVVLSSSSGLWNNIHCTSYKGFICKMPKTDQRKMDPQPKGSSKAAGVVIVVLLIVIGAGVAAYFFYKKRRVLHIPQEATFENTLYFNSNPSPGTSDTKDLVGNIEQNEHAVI", "assay": "Uptake of Alexa488-SI-0052 in NR8383 in the presence of competing sugars", "assay_type": "cell-based", "conditions": "250 nM Alexa488-SI-0052, varying sugar concentrations; FIG. 1b", "protocol": "NR8383 rat alveolar macrophages were obtained from ATCC and cultured in gelatin coated flasks in F12K medium +15% heat inactivated FBS+antibiotics. For uptake experiments, NR8383 were seeded in gelatin coated 96 well plates and allowed to reach confluence. […] Each condition was carried out in triplicate. […] Cells were transferred to V-bottom 96 well plates and centrifuged (800 g, 7 min, 4C) to collect. Pellets were washed with cold 5 mM EDTA and again centrifuged. Cells were then resuspended in 1% paraformaldehyde in PBS and stored at 4C in the dark until analysis.\nUptake of Alexa488-SI-0052, as measured by cellular fluorescence, was assessed using flow cytometry (FACSCalibur). The geometric mean of fluorescence for 5000-10000 cells was measured for each sample. Mannose specific uptake was taken to be the difference between total uptake (without mannan) and the uptake in the presence of mannan (non-specific uptake).\nThe uptake of Alexa488-SI-0052 was measured, as described above, in the presence of various sugars known to have varying affinities for the mannose receptor. NR8383 were incubated with a constant concentration of Alexa488-SI-0052 (250 nM, chosen because this concentration lies on the concentration dependent portion of the Alexa488-SI-0052 uptake curve) and varying concentrations of α-methyl mannose (α-MM), glucose and galactose.", "data": [{"smiles": "O=C[C@H](O)[C@@H](O)[C@@H](O)[C@H](O)CO", "note": "[galactose]", "values": [{"measurement": "Interference with Alexa488-SI-0052 uptake (rank order)", "result": "then galactose"}]}, {"smiles": "COC1O[C@H](CO)[C@@H](O)[C@H](O)[C@@H]1O", "note": "(stereo partly drawn) [α-MM, α-methyl mannose]", "values": [{"measurement": "Interference with Alexa488-SI-0052 uptake (rank order)", "result": "interferes the most"}]}]}
